# Laboratory results published in article PMC7901654, “Bioisosteric Discovery of NPA101.3, a Second-Generation RET/VEGFR2 Inhibitor Optimized for Single-Agent Polypharmacology” (Journal of Medicinal Chemistry, 2020).
# Key:
# [1] = tested on: RET mutant TT, MZ-CRC-1, TPC-1, and Lc-2/ad human cancer cells; experiment: Cell growth curves, RET mutant human cancer cells taken together; assay type: cell-based; conditions: range over TT, MZ-CRC-1, TPC-1, Lc-2/ad, read-out: IC50, proliferation of RET mutant human cancer cells
# Protocol: The IC50 dose for all human RET-negative cells was >100.0 nM, confirming compound selectivity (Figure S8 and Table S4).
# Nthy-ory-3-1 (10000 per well), TPC-1 (10000 per well), MZ-CRC-1 (100000 per well), TT (200000 per well), Lc-2/ad (100000 per well), BCPAP (10000 per well), 8505-C (10000 per well), PC-9 (10000 per well), A549 (10000 per well), CALU-1 (10000 per well), NIH3T3 RET/C634Y (10000 per well), and NIH3T3 HRAS/G12V (10000 per well) were seeded in six-well tissue culture plates. Cells were kept in 2% (TPC-1), 5% (Nthy-ori-3-1), or 10% (BCPAP, 8505-C, CALU-1, A549, PC-9, TT, MZ-CRC-1, and Lc-2/ad) fetal calf serum or in 2% (NIH3T3 RET/C634Y and HRAS/G12V) calf serum. Ba/F3 cells (200000 per well in 2 mL) were seeded in six-well tissue culture plates and kept in 10% fetal calf serum. The day after plating, different concentrations of the drug or vehicle were added to the medium and changed every 2–3 days. Cells were counted every day (Ba/F3), every 2 days (fibroblasts), or every 2–3 days (human cell lines). To compare cell growth, we performed an unpaired Student’s t test using the Instat software program (Graphpad Software Inc.). […] IC50 doses were calculated through a curve fitting analysis from last day of growth curves using the PRISM software program (Graphpad Software Inc.).
# NIH3T3 RET/C634Y cells = experiment: Phosphorylation and signalling Western blot in NIH3T3 RET/C634Y cells; assay type: cell-based; conditions: 10.0 nM, 2 h
# Protocol: Protein lysates were prepared according to standard procedures. Briefly, cells were lysed in a buffer containing 50 mM N-2-hydroxyethylpiperazine-N′-2-ethanesulfonic acid (HEPES; pH 7.5), 1% (v/v) Triton X-100, 150 mM NaCl, 5 mM EGTA, 50 mM NaF, 20 mM sodium pyrophosphate, 1 mM sodium vanadate, 2 mM phenylmethanesulfonyl fluoride (PMSF), and 1 μg/mL aprotinin. Lysates were clarified by centrifugation at 10000g for 15 min. […] Immune complexes were detected with the enhanced chemiluminescence kit (Amersham Pharmacia Biotech, Little Chalfont, U.K.). Anti-phospho-SHC (#Y317), which recognizes SHC protein when phosphorylated on Y317, was from Upstate Biotechnology Inc. (Lake Placid, NY). Anti-SHC (H-108) was from Santa Cruz Biotechnology (Santa Cruz, CA). Anti-MAPK (9101) and anti-phospho-MAPK (9102), specific for p42/44MAPK (ERK1/2) phosphorylated on Thr202/Tyr204, antibodies were from Cell Signaling Technologies (Danvers, MA). Anti-phospho-VEGFR2/KDR (2478), specific for VEGFR2/KDR phosphorylated on Tyr1175, and anti-VEGFR2/KDR (2479) were from Cell Signaling Technologies. Anti-phospho-p70S6K (9234), specific for p70S6K phosphorylated on Thr389, and anti-p70S6K (2708) were from Cell Signaling Technologies. […]
smiles,measurement,setting,value
CC(C)(C)c1cc(NC(=O)Cc2ccc(-n3cnc4cc(-c5ccc(S(C)(=O)=O)cc5)ccc43)cc2)no1 [NPA101.3],IC50,[1],0.67 to 3.6 nM
same,phosphorylation of MAPK,NIH3T3 RET/C634Y cells,attenuated
same,phosphorylation of RET and SHC,NIH3T3 RET/C634Y cells,almost completely inhibited
